Assay results: patent EP4653016A1, “CONJUGATE OF ERIBULIN DRUG” (SystImmune, Inc., priority 2023, dated 2024)

How the values were obtained:
Experiment in all cases: Cytotoxicity of compounds to tumor cell lines (MTS, 5 days)
Assay type in all cases: cell-based
[1] = system: A431(human epidermal carcinoma cells); conditions: A-431, 120 h, A431, 5 days
Description: (§1) In the present invention, various human-derived tumor cell lines (BxPC-3 (human orthotopic pancreatic adenocarcinoma cell), SW620 (human colon cancer cell), H1975 (human lung adenocarcinoma cell), HCC827 (human lung adenocarcinoma cell), FaDu (human pharyngeal squamous cell carcinoma cell) and A431(human epidermal carcinoma cells)) were used as experimental models to evaluate the cytotoxicity of compound to tumor cell lines. A certain number of tumor cells were seeded into a 96-well plate. After the cells adhered to the wall, gradient dilutions of tested compounds were added to the test cells, followed by incubation at 37 °C and 5% CO2 for 5 days. Cell viability was measured using MTS, and the inhibitory effect of the control compounds and the tested compounds on the tumor cell lines was evaluated byIC50. The compound with a starting concentration of 4000 nM was diluted 7 folds, with a total of 8 concentration points. […] Table 5: In vitro pharmacodynamic activity of control compounds and tested compounds in human-derived tumor cell lines BxPC-3, SW620 and H1975: […]

[2] = system: BxPC-3 (human orthotopic pancreatic adenocarcinoma cell); conditions: for IC50: Homo sapiens, 120 h, BxPC-3, 5 days, MTS; for anti-tumor effects: in words, BxPC-3, SW620, H1975, HCC827, FaDu and A431 cell models
Description: as §1

[3] = system: FaDu (human pharyngeal squamous cell carcinoma cell); conditions: 120 h
Description: as §1

[4] = system: H1975 (human lung adenocarcinoma cell); conditions: NCI-H1975, 120 h, H1975, 5 days
Description: as §1

[5] = system: HCC827 (human lung adenocarcinoma cell); conditions: 120 h, HCC827, 5 days
Description: as §1

[6] = system: SW620 (human colon cancer cell); conditions: SW-620, 120 h, SW620, 5 days
Description: as §1

Row | Structure (SMILES) | IC50 [1] [nM] | IC50 [2] [nM] | IC50 [3] [nM] | IC50 [4] [nM] | IC50 [5] [nM] | IC50 [6] [nM] | anti-tumor effects [2]
1 | C=C1C[C@@H]2CC[C@@]34C[C@H]5O[C@H]6[C@@H](O3)[C@H]3O[C@H](CC[C@@H]3O[C@H]6[C@H]5O4)CC(=O)C[C@@H]3[C@@H](OC)[C@@H](C[C@H](O)CNC)O[C@H]3C[C@H]3O[C@@H](CC[C@@H]1O2)C[C@@H](C)C3=C [D-2] | 0.02 | 0.03 | 0.37 | 0.25 | 0.025 | 1.25 | –
2 | C=C1C[C@@H]2CC[C@@]34C[C@H]5O[C@H]6[C@@H](O3)[C@H]3O[C@H](CC[C@@H]3O[C@H]6[C@H]5O4)CC(=O)C[C@@H]3[C@@H](OC)[C@@H](C[C@H](O)CN(C)C(=O)OC(C)(C)C)O[C@H]3C[C@H]3O[C@@H](CC[C@@H]1O2)C[C@@H](C)C3=C [D-3] | < 0.005 | < 0.005 | < 0.005 | < 0.005 | < 0.005 | < 0.005 | the best effects
3 | C=C1C[C@@H]2CC[C@@]34C[C@H]5O[C@H]6[C@@H](O3)[C@H]3O[C@H](CC[C@@H]3O[C@H]6[C@H]5O4)CC(=O)C[C@@H]3[C@@H](OC)[C@@H](C[C@H](O)CN)O[C@H]3C[C@H]3O[C@@H](CC[C@@H]1O2)C[C@@H](C)C3=C [D-4(eribulin), eribulin] | 0.03 | 0.06 | 0.73 | 0.39 | 0.05 | 2.56 | –
4 | C=CCOC(=O)N(C)C[C@@H](O)C[C@H]1O[C@H]2C[C@H]3O[C@@H](CC[C@@H]4O[C@@H](CC[C@@]56C[C@H]7O[C@H]8[C@@H](O5)[C@H]5O[C@H](CC[C@@H]5O[C@H]8[C@H]7O6)CC(=O)C[C@@H]2[C@H]1OC)CC4=C)C[C@@H](C)C3=C [D-7] | < 0.005 | < 0.005 | 0.01 | 0.01 | < 0.005 | < 0.005 | the best effects
5 | C=C1C[C@@H]2CC[C@@]34C[C@H]5O[C@H]6[C@@H](O3)[C@H]3O[C@H](CC[C@@H]3O[C@H]6[C@H]5O4)CC(=O)C[C@@H]3[C@@H](OC)[C@@H](C[C@H](O)CN(C)C(=O)OCc4ccccc4)O[C@H]3C[C@H]3O[C@@H](CC[C@@H]1O2)C[C@@H](C)C3=C [D-8] | < 0.005 | < 0.005 | < 0.005 | < 0.005 | < 0.005 | < 0.005 | the best effects
6 | C=C1C[C@@H]2CC[C@@]34C[C@H]5O[C@H]6[C@@H](O3)[C@H]3O[C@H](CC[C@@H]3O[C@H]6[C@H]5O4)CC(=O)C[C@@H]3[C@@H](OC)[C@@H](C[C@H](O)CN(C)C(=O)c4ccccc4)O[C@H]3C[C@H]3O[C@@H](CC[C@@H]1O2)C[C@@H](C)C3=C [D-9] | < 0.005 | < 0.005 | < 0.005 | < 0.005 | < 0.005 | < 0.005 | the best effects
7 | C=C1C[C@@H]2CC[C@@]34C[C@H]5O[C@H]6[C@@H](O3)[C@H]3O[C@H](CC[C@@H]3O[C@H]6[C@H]5O4)CC(=O)C[C@@H]3[C@@H](OC)[C@@H](C[C@H](O)CN(C)C(=O)C(C)C)O[C@H]3C[C@H]3O[C@@H](CC[C@@H]1O2)C[C@@H](C)C3=C [D-11] | 0.02 | 0.01 | 0.08 | 0.06 | 0.01 | 0.15 | –
8 | C=C1C[C@@H]2CC[C@@]34C[C@H]5O[C@H]6[C@@H](O3)[C@H]3O[C@H](CC[C@@H]3O[C@H]6[C@H]5O4)CC(=O)C[C@@H]3[C@@H](OC)[C@@H](C[C@H](O)CN(C)C(=O)C(C)(C)C)O[C@H]3C[C@H]3O[C@@H](CC[C@@H]1O2)C[C@@H](C)C3=C [D-12] | < 0.005 | < 0.005 | < 0.005 | < 0.005 | < 0.005 | < 0.005 | the best effects
9 | C=C1C[C@@H]2CC[C@@]34C[C@H]5O[C@H]6[C@@H](O3)[C@H]3O[C@H](CC[C@@H]3O[C@H]6[C@H]5O4)CC(=O)C[C@@H]3[C@@H](OC)[C@@H](C[C@H](O)CNC(=O)OC(C)(C)C)O[C@H]3C[C@H]3O[C@@H](CC[C@@H]1O2)C[C@@H](C)C3=C [D-13] | < 0.005 | < 0.005 | < 0.005 | < 0.005 | < 0.005 | < 0.005 | the best effects
10 | C=C1C[C@@H]2CC[C@@]34C[C@H]5O[C@H]6[C@@H](O3)[C@H]3O[C@H](CC[C@@H]3O[C@H]6[C@H]5O4)CC(=O)C[C@@H]3[C@@H](OC)[C@@H](C[C@H](O)CN(C)S(C)(=O)=O)O[C@H]3C[C@H]3O[C@@H](CC[C@@H]1O2)C[C@@H](C)C3=C [D-14] | 0.01 | 0.01 | 0.16 | 0.1 | 0.01 | 0.19 | –
11 | C=C1C[C@@H]2CC[C@@]34C[C@H]5O[C@H]6[C@@H](O3)[C@H]3O[C@H](CC[C@@H]3O[C@H]6[C@H]5O4)CC(=O)C[C@@H]3[C@@H](OC)[C@@H](C[C@H](O)CN(C)C(=O)C(F)F)O[C@H]3C[C@H]3O[C@@H](CC[C@@H]1O2)C[C@@H](C)C3=C [D-15] | 0.02 | 0.03 | 0.33 | 0.14 | 0.02 | 0.69 | –
12 | C=C1C[C@@H]2CC[C@@]34C[C@H]5O[C@H]6[C@@H](O3)[C@H]3O[C@H](CC[C@@H]3O[C@H]6[C@H]5O4)CC(=O)C[C@@H]3[C@@H](OC)[C@@H](C[C@H](O)CNC(=O)[C@H]4C[C@@H](OC)C4)O[C@H]3C[C@H]3O[C@@H](CC[C@@H]1O2)C[C@@H](C)C3=C [D-21] | 0.12 | 0.05 | 0.39 | 0.24 | 0.04 | 0.24 | –
